In ChEMBL document CHEMBL5500375, “Design, synthesis, and evaluation of N1,N3-dialkyldioxonaphthoimidazoliums as antibacterial agents against methicillin-resistant Staphylococcus aureus” (Eur J Med Chem, 2024):
Converted amounts (≈) assume the structure as drawn. The source made the active and inactive calls. The rule behind the calls is not given here.

Legend:
[1] = system: Staphylococcus aureus; assay: Antibacterial agents against methicillin-resistant Staphylococcus aureus SA3 assessed as absence of growth measured after 18 hrs by micro-dilution method; assay type: functional
[2] = system: Bacillus subtilis; assay: Antibacterial agents against Bacillus subtilis PS380 assessed as absence of growth measured after 18 hrs by micro-dilution method; assay type: functional
[3] = system: Staphylococcus aureus; assay: Antibacterial agents against methicillin-sensitive Staphylococcus aureus SA1 assessed as absence of growth measured after 18 hrs by micro-dilution method; assay type: functional
[4] = system: Staphylococcus aureus; assay: Antibacterial agents against methicillin-sensitive Staphylococcus aureus Newman assessed as absence of growth measured after 18 hrs by micro-dilution method; assay type: functional
[5] = Metabolic stability in human liver microsomes assessed as half life at 2 uM preincubated for 5 mins followed by NADPH addition and measured for 35 mins by LC/MS analysis; assay type: ADME, Microsome; conditions: preincubation 5 min
[6] = In vivo toxicity in Drosophila melanogaster strain Oregon R assessed as survival rate at 0.1 to 1 mg/ml measured upto 72 hrs relative to control; assay type: organism-based; conditions: dose 0.1-1 mg/ml; for Activity: 72 h
[7] = Metabolic stability in human liver microsomes assessed as intrinsic clearance at 2 uM preincubated for 5 mins followed by NADPH addition and measured for 35 mins by LC/MS analysis; assay type: ADME, Microsome; conditions: read-out: CLH
[8] = system: Staphylococcus aureus; assay: Antibacterial agents against methicillin-resistant Staphylococcus aureus USA300 assessed as absence of growth measured after 18 hrs by micro-dilution method; assay type: functional
[9] = system: Staphylococcus aureus; assay: In vivo antibacterial activity against methicillin-resistant Staphylococcus aureus SA3 infected in dorsal thorax of Drosophila melanogaster strain Oregon R assessed as median survival time of Drosophila at 0.04 to 0.2 mg/ml measured upto 72 hrs; assay type: functional; conditions: dose 0.04-0.2 mg/ml
[10] = system: Staphylococcus aureus; assay: Reduction in virulent activity of methicillin-resistant Staphylococcus aureus SA3 infected in dorsal thorax of Drosophila melanogaster strain Oregon R at 0.2 mg/ml measured upto 72 hrs; assay type: functional, organism-based
[11] = system: Staphylococcus aureus; assay: In vivo antibacterial activity against methicillin-resistant Staphylococcus aureus SA3 infected in dorsal thorax of Drosophila melanogaster strain Oregon R assessed as survival time of Drosophila at 0.2 mg/ml measured upto 72 hrs; assay type: functional

Row | Compound | MIC [1] | MIC [2] | MIC [3] | further results
1 | CCCCCn1c2c([n+](CCCC)c1C)C(=O)c1ccccc1C2=O.[Br-] | 3.13 µg/mL |  |  | 
2 | CCCCCCCCn1c2c([n+](CCCCCCCC)c1C)C(=O)c1ccccc1C2=O.[Br-] | 3.13 µg/mL |  |  | 
3 | CCCC[n+]1c2c(n(CC3CC3)c1C)C(=O)c1ccccc1C2=O.[Br-] | 12.5 µg/mL |  |  | 
4 | CCCCCCn1c2c([n+](Cc3ccccc3)c1C)C(=O)c1ccccc1C2=O.[Br-] | 0.78 µg/mL | 0.78 µg/mL | 0.78 µg/mL | 
5 | Cc1n(C(C)C)c2c([n+]1Cc1ccccc1)C(=O)c1ccccc1C2=O.[Br-] | 3.13 µg/mL |  |  | 
6 | CCCCCCn1c2c([n+](Cc3ccco3)c1C)C(=O)c1ccccc1C2=O.[Br-] | 0.78 µg/mL | 3.13 µg/mL | 0.78 µg/mL | 
7 | CCn1c2c([n+](Cc3ccco3)c1C)C(=O)c1ccccc1C2=O.[Br-] | 12.5 µg/mL |  |  | 
8 | CCCCCn1c2c([n+](Cc3ccco3)c1C)C(=O)c1ccccc1C2=O.[Br-] | 3.13 µg/mL |  |  | 
9 | Cc1n(CC2CC2)c2c([n+]1Cc1ccccc1)C(=O)c1ccccc1C2=O.[Br-] | 1.56 µg/mL | 1.56 µg/mL | 0.78 µg/mL | 
10 | Cc1n(CC(C)C)c2c([n+]1Cc1ccccc1)C(=O)c1ccccc1C2=O.[Br-] | 3.13 µg/mL |  |  | 
11 | CCCC[n+]1c2c(n(CC(C)C)c1C)C(=O)c1ccccc1C2=O.[Br-] | 3.13 µg/mL |  |  | 
12 | CCCC[n+]1c2c(n(C3CCC3)c1C)C(=O)c1ccccc1C2=O.[Br-] | 25 µg/mL |  |  | 
13 | CCCCn1c2c([n+](C3CCCCC3)c1C)C(=O)c1ccccc1C2=O.[Br-] | 25 µg/mL |  |  | 
14 | Cc1n(CC2CCCCC2)c2c([n+]1Cc1ccccc1)C(=O)c1ccccc1C2=O.[Br-] | 1.56 µg/mL | 0.78 µg/mL | 1.56 µg/mL | 
15 | CCCCCCCCCCn1c2c([n+](Cc3ccccc3)c1C)C(=O)c1ccccc1C2=O.[Br-] | 0.39 µg/mL | 1.56 µg/mL | 0.39 µg/mL | MIC [4]: 0.39 µg/mL; half-life at 2 µM [5]: 13.2 min; Activity [6]: Toxic; CLint scaled at 2 µM [7]: 103 mL/min/kg; MIC [8]: 0.39 µg/mL
16 | Cc1n(C2CC2)c2c([n+]1Cc1ccccc1)C(=O)c1ccccc1C2=O.[Br-] | 6.25 µg/mL |  |  | 
17 | CCCCCCCn1c2c([n+](Cc3ccco3)c1C)C(=O)c1ccccc1C2=O.[Br-] | 0.78 µg/mL | 0.78 µg/mL | 0.78 µg/mL | MIC [4]: 0.78 µg/mL; half-life at 2 µM [5]: 55.1 min; Activity [6]: Non-Toxic; CLint scaled at 2 µM [7]: 24 mL/min/kg; MIC [8]: 0.78 µg/mL
18 | CCCCCCCCCn1c2c([n+](Cc3ccccc3)c1C)C(=O)c1ccccc1C2=O.[Br-] | 0.39 µg/mL | 1.56 µg/mL | 0.39 µg/mL | MIC [4]: 0.39 µg/mL; half-life at 2 µM [5]: 51.8 min; Activity [6]: Toxic; CLint scaled at 2 µM [7]: 26 mL/min/kg; MIC [8]: 0.39 µg/mL
19 | CCCCCCn1c2c([n+](CCCCCC)c1C)C(=O)c1ccccc1C2=O.[Br-] | 0.78 µg/mL | 1.56 µg/mL | 0.78 µg/mL | MIC [4]: 0.78 µg/mL; MIC [8]: 0.78 µg/mL
20 | CCCCCCCn1c2c([n+](Cc3ccccc3)c1C)C(=O)c1ccccc1C2=O.[Br-] | 0.78 µg/mL | 0.78 µg/mL | 0.39 µg/mL | MIC [4]: 0.39 µg/mL; half-life at 2 µM [5]: 15.6 min; survival at 72 h ([6]; Oregon R, at 0.1 to 1 mg/mL): 75%; CLint scaled at 2 µM [7]: 101 mL/min/kg; MIC [8]: 0.78 µg/mL
21 | CCCCCCCn1c2c([n+](CCCC)c1C)C(=O)c1ccccc1C2=O.[Br-] | 0.78 µg/mL | 0.39 µg/mL | 0.78 µg/mL | 
22 | Cc1n(C2CCCCC2)c2c([n+]1Cc1ccccc1)C(=O)c1ccccc1C2=O.[Br-] | 1.56 µg/mL | 1.56 µg/mL | 0.78 µg/mL | 
23 | CCCCn1c2c([n+](Cc3ccccc3)c1C)C(=O)c1ccccc1C2=O.[Br-] | 12.5 µg/mL |  |  | 

Row | Compound | MIC [1] | MIC [2] | MIC [3] | further results
24 | CCCCn1c2c([n+](CC3CCCCC3)c1C)C(=O)c1ccccc1C2=O.[Br-] | 3.13 µg/mL |  |  | 
25 | CN[C@H](CC(C)C)C(=O)N[C@H]1C(=O)N[C@@H](CC(N)=O)C(=O)N[C@H]2C(=O)N[C@H]3C(=O)N[C@H](C(=O)N[C@H](C(=O)O)c4cc(O)cc(O)c4-c4cc3ccc4O)[C@H](O)c3ccc(c(Cl)c3)Oc3cc2cc(c3O[C@@H]2O[C@H](CO)[C@@H](O)[C@H](O)[C@H]2O[C@H]2C[C@](C)(N)[C@H](O)[C@H](C)O2)Oc2ccc(cc2Cl)[C@H]1O [VANCOMYCIN] | 6.25 µg/mL (≈ 4.31 µM) | 0.19 µg/mL (≈ 0.131 µM) | 1.56 µg/mL (≈ 1.08 µM) | MIC [4]: 1.56 µg/mL (≈ 1.08 µM); Time [9]: 40 h; Activity [10]: inactive; Time [11]: 54 h; MIC [8]: 6.25 µg/mL (≈ 4.31 µM)
26 | Cc1n(C2CCCCCC2)c2c([n+]1Cc1ccccc1)C(=O)c1ccccc1C2=O.[Br-] | 6.25 µg/mL |  |  | 
27 | Cc1n(C(C)(C)C)c2c([n+]1Cc1ccccc1)C(=O)c1ccccc1C2=O.[Br-] | 3.13 µg/mL |  |  | 
28 | CCCCCCCCCCn1c2c([n+](CCCC)c1C)C(=O)c1ccccc1C2=O.[Br-] | 3.13 µg/mL |  |  | 
29 | CCCC[n+]1c2c(n(C(C)(C)C)c1C)C(=O)c1ccccc1C2=O.[Br-] | 6.25 µg/mL |  |  | 
30 | CCCCCCCCCn1c2c([n+](CCCC)c1C)C(=O)c1ccccc1C2=O.[Br-] | 3.13 µg/mL |  |  | 
31 | CCCCCC[n+]1c2c(n(CCCC)c1C)C(=O)c1ccccc1C2=O.[Br-] | 3.13 µg/mL |  |  | 
32 | CCCn1c2c([n+](Cc3ccco3)c1C)C(=O)c1ccccc1C2=O.[Br-] | 12.5 µg/mL |  |  | 
33 | CCCCCn1c2c([n+](Cc3ccccc3)c1C)C(=O)c1ccccc1C2=O.[Br-] | 1.56 µg/mL | 6.25 µg/mL | 3.13 µg/mL | 
34 | CCCn1c2c([n+](Cc3ccccc3)c1C)C(=O)c1ccccc1C2=O.[Br-] | 6.25 µg/mL |  |  | 
35 | CCCCCn1c2c([n+](CCCCC)c1C)C(=O)c1ccccc1C2=O.[Br-] | 3.13 µg/mL |  |  | 
36 | COCC[n+]1c2c(n(Cc3cnccn3)c1C)C(=O)c1ccccc1C2=O.[Br-] [SEPANTRONIUM BROMIDE] | 50 µg/mL |  |  | 
37 | CCCCCCCCn1c2c([n+](Cc3ccco3)c1C)C(=O)c1ccccc1C2=O.[Br-] | 0.39 µg/mL | 0.39 µg/mL | 0.39 µg/mL | MIC [4]: 0.39 µg/mL; half-life at 2 µM [5]: 16.1 min; Activity [6]: Toxic; CLint scaled at 2 µM [7]: 95 mL/min/kg; MIC [8]: 0.39 µg/mL
38 | CCCCCCCn1c2c([n+](CCCCCCC)c1C)C(=O)c1ccccc1C2=O.[Br-] | 0.39 µg/mL | 0.39 µg/mL | 0.39 µg/mL | MIC [4]: 0.39 µg/mL; half-life at 2 µM [5]: 17.4 min; Activity [6]: Non-Toxic; CLint scaled at 2 µM [7]: 77 mL/min/kg; MIC [8]: 0.39 µg/mL
39 | CCCC[n+]1c2c(n(C(C)C)c1C)C(=O)c1ccccc1C2=O.[Br-] | 3.13 µg/mL |  |  | 
40 | Cc1n(C2CCC2)c2c([n+]1Cc1ccccc1)C(=O)c1ccccc1C2=O.[Br-] | 3.13 µg/mL |  |  | 
41 | CCCCn1c2c([n+](Cc3ccco3)c1C)C(=O)c1ccccc1C2=O.[Br-] | 6.25 µg/mL |  |  | 
42 | Cc1n(C2CCCC2)c2c([n+]1Cc1ccccc1)C(=O)c1ccccc1C2=O.[Br-] | 12.5 µg/mL |  |  | 
43 | Cc1n(Cc2ccco2)c2c([n+]1Cc1ccccc1)C(=O)c1ccccc1C2=O.[Br-] | 6.25 µg/mL |  |  | 
44 | CCCCCCCCn1c2c([n+](CCCC)c1C)C(=O)c1ccccc1C2=O.[Br-] | 0.39 µg/mL | 0.39 µg/mL | 0.39 µg/mL | MIC [4]: 0.39 µg/mL; half-life at 2 µM [5]: 11.6 min; Activity [6]: Non-Toxic; CLint scaled at 2 µM [7]: 125 mL/min/kg; MIC [8]: 0.39 µg/mL
45 | CCn1c2c([n+](Cc3ccccc3)c1C)C(=O)c1ccccc1C2=O.[Br-] | 3.13 µg/mL |  |  | 
